Assay results published in publication PMC7482845, “G10 is a direct activator of human STING” (PLoS ONE, 2020).

Experiments:
[1] = target: T1, R232 variant of human STING (Homo sapiens, UniProt Q86WV6, H232R); assay: Luciferase (ISRE.ISG reporter) assay in HEK293T cells stably expressing R232 hSTING; format: cell-based; settings: for EC50: HEK293T cells expressing R232 hSTING, luciferase reporter, read-out: HEK.R232 EC50; for activity against R232 STING, in words: HEK.R232 cellular assay
T1 construct: the ER fraction from R232.STING transfected HEK293T cells which contained full length STING
T1 sequence (Q86WV6 whole entry H232R): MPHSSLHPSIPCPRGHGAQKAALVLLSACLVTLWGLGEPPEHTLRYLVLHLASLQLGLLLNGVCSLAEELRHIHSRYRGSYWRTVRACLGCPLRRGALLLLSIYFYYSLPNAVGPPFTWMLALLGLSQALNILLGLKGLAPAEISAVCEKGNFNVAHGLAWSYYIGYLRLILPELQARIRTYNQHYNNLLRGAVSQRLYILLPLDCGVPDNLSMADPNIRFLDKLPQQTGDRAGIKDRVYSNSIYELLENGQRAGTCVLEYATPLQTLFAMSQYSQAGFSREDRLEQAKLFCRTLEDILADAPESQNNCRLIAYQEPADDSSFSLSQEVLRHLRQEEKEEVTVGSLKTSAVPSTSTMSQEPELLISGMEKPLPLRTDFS
Text: (§1) • a) Stable STING expressing cells. Stable HEK293T STING-expressing cell lines were generated using plasmids purchased from Invivogen, CA, USA, that contain STING cDNA cloned into the pUNO-1 vector under the hEF1-HTLV promoter as well as the Blasticidin selection cassette. The human STING plasmids corresponding to the R232, H232 and HAQ variants were directly procured from Invivogen while the AQ and Q variants were created by mismatch PCR using cDNA from HAQ.STING and R232.STING variants respectively. These vectors were individually transfected into HEK293T cells using Lipofectamine (Invitrogen) and transfected cells were expanded under Blasticidin selection. These cells were further subjected to clonal selection using the limiting dilution method to obtain clonally pure populations of HEK293T cells expressing each of the five human STING variants. Clones with minimal ligand independent activation of STING were chosen for cellular experiments. • b) N-His R232.hSTING HEK293T cells. HEK293T cells stably expressing N-His R232.hSTING were generated by the following described method. N-His R232.hSTING.pcDNA Myc B plasmid was transfected into HEK293T cells using Lipofectamine reagent (Invitrogen) and the transfected cells were selected under Hygromycin. Stably STING expressing HEK293T cells thus selected were further subjected to single cell clonal selection using the limiting dilution method to obtain a clonally pure population of HEK293T cells expressing the human R232 STING variant.
[…] clonally selected HEK293T-hSTING-Luciferase cells or control HEK293T-Luciferase cells were seeded in 384-well plates in growth medium and stimulated with known STING agonists or novel compounds. […]

HAQ STING (THP-1 cells) = target: T2, HAQ STING (THP-1 cells) (Homo sapiens, UniProt Q86WV6, G230A/R293Q/R71H); assay: THP1 cellular assay (EC50); format: cell-based; settings: for THP-1 EC50 / EC50: THP-1 cells (HAQ STING); for activation of THP1 cells, in words: THP1 cellular assay
T2 construct: THP1 cells constitutively express the HAQ variant of human STING; host or cells: THP-1
T2 sequence (Q86WV6 whole entry R71H/G230A/R293Q): as the sequence (Q86WV6 whole entry H232R) above, with R71H, G230A, R232H, R293Q counted along it

[2] = target: T3, recombinant CTT domain of R232 STING (Homo sapiens, UniProt Q86WV6, H232R); assay: In vitro kinase assay, recombinant CTT domain of R232 STING plus recombinant TBK1; format: biochemical; settings: STING source not stated (S3 Fig)
T3 construct: corresponding to the soluble domain of STING (138 to 379 aa) protein; purchased Cayman Chemicals (STING); Invitrogen (TBK1) 22816 (STING); A31514 (TBK1)
T3 sequence (Q86WV6 138-379 H232R): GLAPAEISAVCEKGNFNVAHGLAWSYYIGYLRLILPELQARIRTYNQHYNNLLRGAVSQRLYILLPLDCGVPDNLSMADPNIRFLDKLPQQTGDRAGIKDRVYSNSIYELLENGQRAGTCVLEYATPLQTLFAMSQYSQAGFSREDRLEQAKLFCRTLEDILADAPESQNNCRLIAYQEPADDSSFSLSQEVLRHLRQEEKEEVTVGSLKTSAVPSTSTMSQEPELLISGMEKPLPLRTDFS
Protocol: 50ng of recombinant STING protein (Cayman Chemicals Cat# 22816) corresponding to the soluble domain of STING (138 to 379 aa) protein or 1 μl of ER fraction (8mg/ml) containing full length STING from R232.hSTING was incubated with 20 ng of recombinant full length TBK1 protein (Invitrogen, Cat# A31514) in the presence/absence of test compound in 20 μl reaction buffer (50mM Tris-HCl of pH 7.4, 100mM NaCl, 5mM MgCl2, 5mM MnCl2, 10% glycerol, 0.2mM Na3VO4, 20mM β-glycero-PO4, 0.5mM ATP) and 0.01% BSA at 30 °C for 45 min. The reaction was quenched by addition of 2 μl of 10X EDTA to a final concentration of […]. Samples were treated with 4x gel loading dye followed by electrophoresis in 10% SDS-PAGE gels and transferred to Immobilon-P membranes (Millipore). […] Anti-rabbit HRP labelled secondary antibody (Abcam) and Clarity Max™ western ECL substrate (Biorad, Cat# 1705062) were used for visualization of bands using a BioRad XRS plus imager.

[3] = system: multiple STING variants overexpressed in HEK293T cells; assay: Luciferase reporter assay of STING variants overexpressed in HEK293T cells (Compound 8); format: cell-based, human; settings: HEK293T cells (S4 Fig)
Text: as §1, with “HEK293T cells stably expressing N-His R232.hSTING were generated by the following described method. N-His R232.hSTING.pcDNA Myc B plasmid was transfected into HEK293T cells using Lipofectamine reagent (Invitrogen) and the transfected cells were selected under Hygromycin. Stably STING expressing HEK293T cells thus selected were further subjected to single cell clonal selection using the limiting dilution method to obtain a clonally pure population of HEK293T cells expressing the human R232 STING variant.” left out
5 x 10^5 clonally selected HEK293T-hSTING-Luciferase cells or control HEK293T-Luciferase cells were seeded in 384-well plates in growth medium and stimulated with known STING agonists or novel compounds. Supernatants were removed after 20 hours of treatment and secretory reporter gene activity was measured using the Quanti-Luc detection system (Invivogen) on a Spectramax i3X luminometer.

[4] = system: Human STING variants (HEK293T cells); assay: Phosphorylation of STING variants overexpressed in HEK293T cells (Compound 8); format: cell-based; settings: HEK293T cells (S5 Fig)
Protocol: 5 x 10^5 cells were seeded in 24-well plates in 500 μl growth medium and stimulated with novel compounds at 10μM. After 2 hours of treatment cells were harvested by centrifugation and cell pellets were lysed in RIPA buffer (20mM Tris-Cl, 150mM NaCl, 0.5mM EDTA, 1% NP40, 0.05% SDS) containing 1x phosphatase inhibitor cocktail 3 (Sigma) and 1x protease inhibitor (Roche) to extract the soluble fraction of protein. 10 μg of extracted protein was electrophoresed in 10% SDS-PAGE gels and transferred onto Immobilon-P membranes (Millipore). […] Anti-rabbit HRP label secondary antibody (Abcam) and Clarity Max™ western ECL substrate (Biorad—cat# 1705062) were used for visualization of bands using a BioRad XRS plus imager.

STING in human PBMCs = target: T4, STING in human PBMCs (Homo sapiens, UniProt Q86WV6); assay: Phosphorylation of STING in human PBMCs; format: cell-based; settings: multiple donors (S6 Fig)
T4 construct: endogenous in cells; host or cells: human PBMCs, multiple donors
T4 sequence (Q86WV6 whole entry): as the sequence (Q86WV6 whole entry H232R) above, with R232H counted along it

[5] = target: T5, STING in human tumor lines (Homo sapiens, UniProt Q86WV6); assay: Phosphorylation of STING in human tumor lines; format: cell-based; settings: S7 Fig
T5 construct: endogenous in cells
T5 sequence (Q86WV6 whole entry): as the sequence (Q86WV6 whole entry H232R) above, with R232H counted along it

human STING = system: human STING; set-up: method as in PMID 23585680; settings: any variant of human STING; cited from earlier work

| SMILES | EC50 [1] [nM] | activation of THP1 cells, in words (HAQ STING (THP-1 cells)) | EC50 (HAQ STING (THP-1 cells)) [nM] | activity against R232 STING, in words [1] | also measured |
| --- | --- | --- | --- | --- | --- |
| O=C(NCc1ccco1)c1ccc2c(c1)N(Cc1c(Cl)cccc1Cl)C(=O)CS2 [Compound 1, 4-(2,6-Dichlorobenzyl)-N-(furan-2-ylmethyl)-3-oxo-3,4-dihydro-2H-benzo[b][1,4]thiazine-6-carboxamide] | 2160 | – | – | – | THP-1 EC50 (HAQ STING (THP-1 cells)): Nil @ 30uM |
| O=C(NCc1ccco1)c1ccc2c(c1)N(Cc1c(F)cccc1F)C(=O)CS2 [Compound 2, 4-(2,6-Difluorobenzyl)-N-(furan-2-ylmethyl)-3-oxo-3,4-dihydro-2H-benzo[b][1,4]thiazine-6-carboxamide] | 3970 | – | – | – | THP-1 EC50 (HAQ STING (THP-1 cells)): Nil @ 30uM |
| O=C(NCc1ccco1)c1ccc2c(c1)N(Cc1ccccc1)C(=O)CS2 [Compound 3, 1-Benzyl-N-(furan-2-ylmethyl)-2-oxo-2,3-dihydro-1H-benzo[b][1,4]thiazine-7-carboxamide] | 9130 | – | – | – | THP-1 EC50 (HAQ STING (THP-1 cells)): Nil @ 30uM |
| O=C(NCc1ccc(F)cc1F)c1ccc2c(c1)N(Cc1c(F)cccc1Cl)C(=O)CS2 [Compound 4, 4-(2-Chloro-6-fluorobenzyl)-N-(2,4-difluorobenzyl)-3-oxo-3,4-dihydro-2H-benzo[b][1,4]thiazine-6-carboxamide] | 292 | very weak activation | > 30000 | – | – |
| O=C(NCc1c(F)cc(F)cc1F)c1ccc2c(c1)N(Cc1c(F)cccc1Cl)C(=O)CS2 [Compound 5, 4-(2-Chloro-6-fluorobenzyl)-3-oxo-N-(2,4,6-trifluorobenzyl)-3,4-dihydro-2H-benzo[b][1,4]thiazine-6-carboxamide] | 188 | very weak activation | > 10000 | – | – |
| COc1cc(F)c(CN2C(=O)CSc3ccc(C(=O)NCc4c(F)cc(F)cc4F)cc32)c(F)c1 [Compound 6, 4-(2,6-Difluoro-4-methoxybenzyl)-3-oxo-N-(2,4,6-trifluorobenzyl)-3,4-dihydro-2H-benzo[b][1,4]thiazine-6-carboxamide] | 160 | – | > 10000 | sharp increases in activity | – |
| O=C(NCc1c(F)cc(F)cc1F)c1ccc2c(c1)N(Cc1c(F)cc(O)cc1F)C(=O)CS2 [Compound 7, 4-(2,6-Difluoro-4-hydroxybenzyl)-3-oxo-N-(2,4,6-trifluorobenzyl)-3,4-dihydro-2H-benzo[b][1,4]thiazine-6-carboxamide] | 71.6 | significant activity | 1380 | sharp increases in activity | – |
| CC1Sc2ccc(C(=O)NCc3c(F)cc(F)cc3F)cc2N(Cc2c(F)cccc2Cl)C1=O (stereo not shown) [Compound 8, 4-(2-Chloro-6-fluorobenzyl)-2-methyl-3-oxo-N-(2,4,6-trifluorobenzyl)-3,4-dihydro-2H-benzo[b][1,4]thiazine-6-carboxamide] | 122 | sub-micromolar activity | 944 | sub-micromolar activity | activity in the cell-free pSTING assay [2]: confirmed activity; activation of multiple STING variants, luciferase reporter assay [3]: activated; phosphorylation of human STING variants [4]: phosphorylated; phosphorylation of STING in human PBMCs (STING in human PBMCs): phosphorylated STING; phosphorylation of STING in human tumor lines [5]: phosphorylated STING |
| CC1Sc2ccc(C(=O)NCc3c(F)cc(F)cc3F)cc2N(Cc2c(F)ccc(O)c2Cl)C1=O (stereo not shown) [Compound 9, 4-(2-Chloro-6-fluoro-3-hydroxybenzyl)-2-methyl-3-oxo-N-(2,4,6-trifluorobenzyl)-3,4-dihydro-2H-benzo[b][1,4]thiazine-6-carboxamide] | 96 | sub-micromolar activity | 412 | sub-micromolar activity | – |
| CC1Sc2ccc(C(=O)NCc3c(F)cc(F)cc3F)cc2N(Cc2cc(F)cc(F)c2)C1=O (stereo not shown) [Compound 10] | 421 | – | ~6000 | – | – |
| CC1Sc2ncc(C(=O)NCc3cc4ccccc4o3)cc2N(Cc2cc(F)cc(F)c2)C1=O (stereo not shown) [Compound 12, N-(Benzofuran-2-ylmethyl)-1-(3,5-difluorobenzyl)-3-methyl-2-oxo-2,3-dihydro-1H-pyrido[2,3-b][1,4]thiazine-7-carboxamide] | 91 | – | ~8000 | – | – |
| Cc1ccc2c(=O)c3cccc(CC(=O)O)c3oc2c1C [DMXAA, 5,6 dimethyl xanthenone 4-acetic acid] | – | – | – | – | activation of human STING variants (human STING): does not activate |
